Reference: paper PMC5339975, “Cytotoxicity, antimicrobial and antioxidant activity of eight compounds isolated from Entada abyssinica (Fabaceae)” (BMC Research Notes, 2017)
In brackets after ≈: the same amount, converted by molar mass. Where two headings read alike, the source gives them in different places. Marks after values point to notes of the source that are not given here.

Key:
[1] = DPPH radical-scavenging assay; conditions: mean ± SD of three experiments
Description: The DPPH radical-scavenging activity was assessed by the method previously described.

ABTS radical assay = conditions: mean ± SD of three experiments
Description: The antioxidant activity by ABTS was assessed according to the method previously described.

[2] = tested on: Bacillus cereus ATCC 14579; assay: Antibacterial MIC, INT microdilution; type: cell-based; conditions: ATCC14579, read-out: MIC Bc
Description: (§1) The six bacterial strains included: Pseudomonas aeruginosa ATCC 27853, Bacillus cereus ATCC 14579, Staphylococcus aureus ATCC 29213, Escherichia coli ATCC 25922, Salmonella typhimurium ATCC 14028 and Enterococcus faecalis ATCC 29212. The antimicrobial activity was evaluated by determining the minimal inhibitory concentration (MIC) by the rapid p-iodonitrotetrazolium violet (INT) microdilution method as previously described.

[3] = tested on: Enterococcus faecalis ATCC 29212; assay: Antibacterial MIC, INT microdilution; type: cell-based; conditions: ATCC29212, read-out: MIC Ef
Description: as §1

[4] = tested on: Escherichia coli ATCC 25922; assay: Antibacterial MIC, INT microdilution; type: cell-based; conditions: ATCC25922, read-out: MIC Ec
Description: as §1

[5] = tested on: Pseudomonas aeruginosa ATCC 27853; assay: Antibacterial MIC, INT microdilution; type: cell-based; conditions: ATCC27853, read-out: MIC Pa
Description: as §1

[6] = tested on: Salmonella typhimurium ATCC 14028; assay: Antibacterial MIC, INT microdilution; type: cell-based; conditions: Salmonella enterica, read-out: MIC St
Description: as §1

[7] = tested on: Staphylococcus aureus ATCC 29213; assay: Antibacterial MIC, INT microdilution; type: cell-based; conditions: ATCC29213, read-out: MIC Sa
Description: as §1

[8] = MTT cytotoxicity assay, normal cells; type: cell-based; conditions: monkey
Description: (§2) Cancer cell lines including human monocytic THP-1 and murine macrophage RAW 264.7 cells and the normal mammalian Vero monkey kidney cell line were obtained from the American Type Culture Collection (Rockville, MD, USA). They were maintained in DMEM under standard cell culture conditions at 37 °C and 5% CO2 in a humidified environment.
(§3) The 3-(4,5-dimethylthiazol-2-yl)-2,5-diphenyltetrazolium bromide (MTT) assay was used to determine the cytotoxicity of the compounds as previously described. The selectivity index (SI) values to identify selective anti-cancer cell activity were calculated by dividing the LC50 values of normal Vero cells by the LC50 of cancer cells.

RAW 264.7 cells = assay: MTT cytotoxicity assay, cancer cells; type: cell-based; conditions: Mus musculus, RAW264.7, read-out: RAW 264.7 LC50
Description: as §2, §3

THP-1 cells = assay: MTT cytotoxicity assay, cancer cells; type: cell-based; conditions: Homo sapiens, THP-1, read-out: THP-1 LC50
Description: as §2, §3

S. aureus = conditions: cited from earlier work
[9] = Ferric reducing antioxidant power (FRAP) assay; conditions: mean ± SD of three experiments
Description: The antioxidant activity by the ferric reducing antioxidant power (FRAP) was assessed according to the method previously described with slight modifications.

Vero monkey kidney cells = assay: MTT cytotoxicity assay, normal cells; type: cell-based; conditions: normal Vero cells, MTT, mean ± SD
Description: as §2, §3

DPPH (IC50) [1]	ABTS (IC50) (ABTS radical assay)	MIC [2] [µg/mL]	MIC [3] [µg/mL]	MIC [4] [µg/mL]	MIC [5] [µg/mL]	MIC ([6]; Salmonella typhimurium) [µg/mL]	MIC [7] [µg/mL]	SMILES	CC50 [8] [µg/mL]	CC50 (RAW 264.7 cells) [µg/mL]	CC50 (THP-1 cells) [µg/mL]	MIC (S. aureus) [µg/mL]	MIC [6] [µg/mL]	FRAP [9]	CC50 ([8]; normal Vero cells, MTT, mean ± SD, read-out: Vero LC50) [µg/mL]	Vero LC50 (Vero monkey kidney cells)
3.44 ± 1.9^a,f µg/mL	4.15 ± 1.21^d,e µg/mL							O=C1O[C@H]([C@@H](O)CO)C(O)=C1O [Ascorbic acid, reference compound]								
– (– 100 µg/mL)	– (– 100 µg/mL)	25 (≈ 71.7 µM)	> 100	> 100	> 100	100 (≈ 287 µM)	25 (≈ 71.7 µM)	COC(=O)/C=C(/C)CC[C@]1(C)[C@H]2CCC=C(C(=O)O)[C@]2(C)CC[C@@H]1C [Compound 4, (8S)-kolavic acid 15-methyl ester]	47.5 ± 0.63 (≈ 136 µM)	52.3 ± 1.3 (≈ 150 µM)	49.8 ± 3.03 (≈ 143 µM)			1.93 ± 0.14^a µmol FeSO4/g		
– (– 100 µg/mL)	– (– 100 µg/mL)	> 100	> 100	> 100	> 100	> 100	> 100	C[C@@H]1CC[C@@]2(C)C(C(=O)O)=CCC[C@@H]2[C@@]1(C)CC(=O)O [Compound 5, 13,14,15,16-tetranor-3-clerodene-12,18-dioic acid]	41.9 ± 1.85 (≈ 149 µM)	16.1 ± 1 (≈ 57.4 µM)	21.8 ± 1.11 (≈ 77.8 µM)			5.09 ± 0.40^c µmol FeSO4/g		
0.48 ± 0.02^c µg/mL	2.53 ± 0.49^d µg/mL	50 (≈ 272 µM)	> 100	> 100	> 100	25 (≈ 136 µM)	50 (≈ 272 µM)	COC(=O)c1cc(O)c(O)c(O)c1 [Compound 6, methyl gallate]	30.6 ± 3.09 (≈ 166 µM)	36.9 ± 1.27 (≈ 200 µM)	75 ± 1.68 (≈ 407 µM)			103.98 ± 13.70^d µmol FeSO4/g		
1.12 ± 0.10^c,d µg/mL	4.13 ± 0.10^e µg/mL	25 (≈ 72.6 µM)	> 100	12.5 (≈ 36.3 µM)	25 (≈ 72.6 µM)	1.56 (≈ 4.53 µM)	12.5 (≈ 36.3 µM)	COc1c(O)c(O)cc2c1COc1c-2oc2cc(O)cc(O)c2c1=O [Compound 7, entadanin]	55.65 ± 0.3 (≈ 162 µM)	19.1 ± 0.25 (≈ 55.5 µM)	84.3 ± 3.3 (≈ 245 µM)			72.41 ± 2.02^b,e µmol FeSO4/g		
		0.5 (≈ 1.05 µM)	0.25 (≈ 0.523 µM)	1 (≈ 2.09 µM)	0.25 (≈ 0.523 µM)	2 (≈ 4.19 µM)	0.5 (≈ 1.05 µM)	CNC(C)C1CCC(N)C(OC2C(N)CC(N)C(OC3OCC(C)(O)C(NC)C3O)C2O)O1 (centres unmarked) [Gentamicin, reference compound]								
8.71 ± 2.03^e µg/mL	10.38 ± 2.4^a,f µg/mL							Cc1c(C)c2c(c(C)c1O)CCC(C)(C(=O)O)O2 (centres unmarked) [Trolox, reference compound]								

The next lines start with the compound.

SMILES	DPPH (IC50) [1]	ABTS (IC50) (ABTS radical assay)	MIC [2] [µg/mL]	MIC [3] [µg/mL]	MIC [4] [µg/mL]	MIC [5] [µg/mL]	MIC ([6]; Salmonella typhimurium) [µg/mL]	MIC [7] [µg/mL]	CC50 [8] [µg/mL]	CC50 (RAW 264.7 cells) [µg/mL]	CC50 (THP-1 cells) [µg/mL]	MIC (S. aureus) [µg/mL]	MIC [6] [µg/mL]	FRAP [9]	CC50 ([8]; normal Vero cells, MTT, mean ± SD, read-out: Vero LC50) [µg/mL]	Vero LC50 (Vero monkey kidney cells)
C[C@H]1[C@H](C)CC[C@]2(C(=O)O)CC[C@]3(C)C(=CC[C@@H]4[C@@]5(C)CC[C@H](O)C(C)(C)[C@@H]5CC[C@]43C)[C@H]12 [Compound 1, ursolic acid]			6.25 (≈ 13.7 µM)	> 100	> 100	> 100	100 (≈ 219 µM)	12.5 (≈ 27.4 µM)	22.4 ± 2.48 (≈ 49.1 µM)	4.56 ± 0.02 (≈ 9.98 µM)	9.62 ± 0.59 (≈ 21.1 µM)	4 (≈ 8.76 µM)				
C[C@@H]1O[C@@H](Oc2c(-c3ccc(O)c(O)c3)oc3cc(O)cc(O)c3c2=O)[C@H](O)[C@H](O)[C@H]1O [Compound 2, quercetin-3-O-α-L-rhamnoside]	0.9 ± 0.06^b µg/mL	3.53 ± 0.39^b µg/mL	12.5 (≈ 27.9 µM)	25 (≈ 55.8 µM)	50 (≈ 112 µM)	50 (≈ 112 µM)		12.5 (≈ 27.9 µM)		16.4 ± 0.2 (≈ 36.7 µM)	> 100		3.12 (≈ 6.96 µM)	76.01 ± 1.10^b µmol FeSO4/g	44.8 ± 2.83 (≈ 100 µM)	
O=C(CCCCCCCCCCCCCCCCCCCCCCCCC(=O)OC[C@@H](O)CO)OC[C@@H](O)CO [Compound 8, bis-[(S)-(2,3-dihydroxypropyl)] hexacosanedioate]	– (– 100 µg/mL)	– (– 100 µg/mL)	> 100	> 100	> 100	> 100	> 100	> 100	80.5 ± 4.83 (≈ 140 µM)	86.5 ± 4.61 (≈ 151 µM)	65 ± 6.88 (≈ 113 µM)			22.98 ± 4.29^f µmol FeSO4/g		
COc1cccc2c1C(=O)c1c(O)c3c(c(O)c1C2=O)C[C@@](O)(C(=O)CO)C[C@@H]3O[C@H]1C[C@H](N)[C@H](O)[C@H](C)O1 [Doxorubicin, reference compound]										0.5 (≈ 0.92 µM)	> 100					9.35 ± 0.66^h µg/mL
COc1ccc(C[C@H](N)C(=O)N[C@H]2[C@@H](O)[C@H](n3cnc4c(N(C)C)ncnc43)O[C@@H]2CO)cc1 [Puromycin, reference compound]										1.15 ± 0.17 (≈ 2.44 µM)	0.4 ± 0.02 (≈ 0.848 µM)					5.32 ± 0.90^i µg/mL
